One assay concerns NCI-H1703 cells. The assay is described as follows: GLS Cell Proliferation Assay (NCI-H1703 cell proliferation). The format is cell-based. From the text:
(§1) The following assays were used to measure the effects of the compounds described herein: a) GLS Enzyme Potency Assay; b) GLS Cell Potency Assay; c) GLS Cell Proliferation Assay. During the description of the assays, generally: • i. The following abbreviations have been used: CO2=Carbon dioxide; DMEM=Dulbecco's Modified Eagle Medium; DMSO=Dimethyl sulphoxide; EDTA=Ethylenediaminetetraacetic acid; EGTA=Ethylene glycol tetraacetic acid; FCS=Foetal calf serum; h=Hour(s); NBS=Non-binding surface; SDS=Sodium dodecyl sulphate; TRIS=Tris(Hydroxymethyl)aminomethane. • ii. IC50 values were calculated using a smart fitting model in Genedata.
Assay c): GLS Cell Proliferation Assay
The ability of compounds to inhibit cell growth was measured using a 384 well plate NCI-H1703 cell proliferation assay. NCI-H1703 cells were grown in phenol red free RPMI1640, 10% FCS and 2 mM glutamine and seeded at a density of 750 cells per well in 40 μl of growth medium into clear-bottom 384 well assay plates (Corning product code 3712) and incubated for 24 h at 37° C., 5% CO2. Test compounds were prepared by dilution in 100% DMSO to give the correct dose range for 12 point concentration response and an appropriate volume (5-120 nl) dispensed directly into the assay plates containing plated cells. DMSO concentration was maintained at 0.3% by back filling with DMSO solution. Plates were incubated for 5 days at 37° C., 5% CO2, Sytox Green and Saponin added to final concentration of 2 μM and 0.25% respectively and incubated for 6 h prior to analysis. Plates were read on an Acumen eX3 (TTP Labtech) using 488 nm excitation and FITC filter set (500-530 nm) for emission. IC50 values were calculated by curve fitting to max inhibition of day zero growth using GeneData software analysis.

In another assay the target is cellular GLS activity (Homo sapiens (Human), UniProt O94925). As to the kind of experiment: GLS Cell Potency Assay (PC3 coupled assay measuring cellular glutamate depletion). The assay is classed as cell-based. The note with it: PC3 cells, 6 h incubation, glutamate depletion; read-out: Assay b) GLS cell MOA Mean IC50.
Chain of cellular GLS activity (O94925 73-669): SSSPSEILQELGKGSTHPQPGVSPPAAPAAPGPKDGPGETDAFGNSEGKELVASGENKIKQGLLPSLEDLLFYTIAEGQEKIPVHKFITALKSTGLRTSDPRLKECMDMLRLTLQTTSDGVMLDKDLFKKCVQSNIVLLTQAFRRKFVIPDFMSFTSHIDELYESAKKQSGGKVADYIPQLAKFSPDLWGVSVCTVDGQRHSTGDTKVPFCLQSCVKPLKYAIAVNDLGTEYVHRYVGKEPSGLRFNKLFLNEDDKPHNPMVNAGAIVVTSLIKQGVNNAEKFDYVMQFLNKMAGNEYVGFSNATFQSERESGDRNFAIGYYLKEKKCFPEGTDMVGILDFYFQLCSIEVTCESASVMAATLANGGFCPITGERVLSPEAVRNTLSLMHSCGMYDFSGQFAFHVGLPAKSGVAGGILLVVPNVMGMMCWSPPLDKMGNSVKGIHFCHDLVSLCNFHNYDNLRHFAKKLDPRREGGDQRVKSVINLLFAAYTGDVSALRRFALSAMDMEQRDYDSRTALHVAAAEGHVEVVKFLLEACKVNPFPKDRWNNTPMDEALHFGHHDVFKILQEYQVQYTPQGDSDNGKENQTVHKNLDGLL
Excerpt: as §1
Assay b): GLS Cell Potency Assay
Compounds were assessed for their potential to inhibit cellular GLS activity by use of a PC3 coupled assay measuring cellular glutamate depletion. […] DMSO concentration was maintained at 0.3% by back filling with DMSO solution. PC3 cells were grown in phenol free DMEM, 10% dialyzed FCS, 2 mM glutamine and following dispersal by trypsinisation were plated at 5.6×10^3 cells per well in 40 μl of growth medium directly into the 384 well assay plates containing dispensed compound. After incubation for 6 h at 37° C., 5% CO2 growth media was aspirated and cells lysed in 15 μl of buffer containing 10 mM TRIS pH7.4, 100 mM NaCl, 1 mM EDTA, 1 mM EGTA, 1 mM NaF, 20 mM Na4P2O7, 2 mM Na3VO4, 1% Triton X-100, 10% glycerol, 0.1% SDS and 0.5% deoxycholate.

A further assay deals with GLS1 (Homo sapiens (Human), UniProt O94925). The assay is described as follows: GLS Enzyme Potency Assay (Glutamate Oxidase/AmplexRed coupled assay). The format is biochemical. The following applies: 6His tagged GLS protein (amino acids 63-669), glutamine substrate; read-out: Assay a) enz IC50.
Chain of GLS1 (O94925 63-669): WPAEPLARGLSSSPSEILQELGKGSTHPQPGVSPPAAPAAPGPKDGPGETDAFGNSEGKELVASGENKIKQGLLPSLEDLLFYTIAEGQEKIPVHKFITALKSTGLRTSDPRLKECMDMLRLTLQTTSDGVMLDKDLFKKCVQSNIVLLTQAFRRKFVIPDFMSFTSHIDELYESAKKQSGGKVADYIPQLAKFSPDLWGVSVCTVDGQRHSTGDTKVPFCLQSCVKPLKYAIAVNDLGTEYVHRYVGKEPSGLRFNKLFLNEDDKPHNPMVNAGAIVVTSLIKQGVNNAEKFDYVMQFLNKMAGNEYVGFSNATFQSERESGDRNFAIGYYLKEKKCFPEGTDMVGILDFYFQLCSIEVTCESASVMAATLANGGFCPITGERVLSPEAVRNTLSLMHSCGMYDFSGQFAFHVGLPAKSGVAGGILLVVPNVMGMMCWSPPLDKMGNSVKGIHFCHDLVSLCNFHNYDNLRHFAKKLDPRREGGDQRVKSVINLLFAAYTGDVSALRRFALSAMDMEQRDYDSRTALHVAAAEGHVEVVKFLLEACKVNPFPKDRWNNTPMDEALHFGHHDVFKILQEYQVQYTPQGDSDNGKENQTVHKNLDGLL
Excerpt: as §1
Assay a): GLS Enzyme Potency Assay
A Glutamate Oxidase/AmplexRed coupled assay was used to measure the ability of compounds to bind to and inhibit the activity of GLS1 in vitro. […] GLS1 was diluted to 2× working concentration and incubated at room temperature to allow the tetrameric/dimeric forms to reach steady state. Assay measurements were performed in buffer comprising 50 mM TRIS pH 7.8, 100 mM NaPO4, pH 7.8, 0.001% v/v Tween20. Purified recombinant GLS1 protein was diluted in assay buffer to 12 nM and pre-incubated at room temperature for 30 minutes. […] DMSO concentration was maintained at 2% by back filling with DMSO solution. 3 μL of diluted GLS1 protein (12 nM) was then dispensed into each well using a BioRaptr automated dispenser (Beckman-Coulter) and incubated for 15 minutes at room temperature. 3 μL of 100 mM glutamine diluted in assay buffer was then added and the reaction incubated at room temperature for 60 minutes. […] An artefact version of the assay where the 6His tagged GLS protein and glutamine were replaced with assay buffer was also used to rule out non specific effects on the assay components.

Where [1] appears, read: Homo sapiens, NCI-H1703, 120 h, NCI-H1703 cells, 5 days; read-out: Assay c) Prolif Mean IC50.
The mark [2] stands for this setting: NCI-H1703 cells, 5 days; read-out: Assay c) Prolif Mean IC50.

Molecules are shown by their SMILES. Read-outs that look alike come from different tables or passages of the source.

For orientation: IC50 means the point on the concentration scale where inhibition reaches its midpoint. In the case of `CO[C@H](C(=O)Nc1nnc(N[C@@H]2CCN(c3ccc(C)nn3)C2)s1)c1ccccc1` [Example 14, (2S)-2-methoxy-N-[5-[[(3R)-1-(6-methylpyridazin-3-yl)pyrrolidin-3-yl]amino]-1,3,4-thiadiazol-2-yl]-2-phenyl-acetamide], the figures for the IC50 with NCI-H1703 cells (setting [1]), on cellular GLS activity and at GLS1 were 0.0227 µM, 0.00104 µM and 0.0443 µM, respectively.

`COc1ccc(C(OC)C(=O)Nc2nnc(N[C@@H]3CCN(c4ccc(C)nn4)C3)s2)cc1` (stereo partly drawn) [Example 30, 2-methoxy-2-(4-methoxyphenyl)-N-[5-[[(3R)-1-(6-methylpyridazin-3-yl)pyrrolidin-3-yl]amino]-1,3,4-thiadiazol-2-yl]acetamide]: the IC50 in the assay on NCI-H1703 cells (setting [2]) was 0.0437 µM; at cellular GLS activity, 0.00529 µM; on GLS1, 0.119 µM.

As to `CO[C@H](C(=O)Nc1nnc(N[C@@H]2CCN(c3ccc(C)nn3)C2)s1)c1ccc(F)cc1` (single isomer, unassigned) [Example 5(a)], the IC50 in the assay with NCI-H1703 cells (setting [2]) amounted to 0.0441 µM; on cellular GLS activity it was 0.00278 µM; at GLS1, 0.155 µM.

Turning to `COc1ccc([C@H](OC)C(=O)Nc2nnc(N[C@@H]3CCN(c4cc(C)cnn4)C3)s2)cc1` (single isomer, unassigned) [33(b)], the IC50 worked out at 0.0379 µM in the assay with NCI-H1703 cells (setting [2]), 0.00235 µM on cellular GLS activity and 0.0799 µM at GLS1.

Regarding `COC(C(=O)Nc1nnc(N[C@@H]2CCN(c3ccc(F)nn3)C2)s1)c1cccc(OC(F)(F)F)c1` (single isomer, unassigned) [Example 17], the 50% inhibitory concentration (IC50) in the assay on NCI-H1703 cells (setting [2]) is 0.00174 µM; at cellular GLS activity, 0.000251 µM; on GLS1, 0.0243 µM.

Turning to `COc1cc(C(OC)C(=O)Nc2nnc(N[C@@H]3CCN(c4ccc(F)nn4)C3)s2)ccc1F` (single isomer, unassigned) [Example 23], the IC50 with NCI-H1703 cells (setting [2]) came out at 0.106 µM; at cellular GLS activity it was 0.197 µM; on GLS1 it was 0.265 µM.

In the case of `CCO[C@H](C(=O)Nc1nnc(N[C@@H]2CCN(c3ccc(C)nn3)C2)s1)c1cccc(OC)c1` (single isomer, unassigned) [Example 4(a)], the IC50 with NCI-H1703 cells (setting [2]) was found to be 0.00664 µM; at cellular GLS activity, 0.000457 µM; at GLS1, 0.0792 µM.

In the case of `CO[C@H](C(=O)Nc1nnc(N[C@@H]2CCN(c3ccc(C)nn3)C2)s1)c1cccc(OC(F)F)c1` (single isomer, unassigned) [8(b)], the IC50 with NCI-H1703 cells (setting [2]) stood at 0.117 µM; on cellular GLS activity, 0.0221 µM; at GLS1 it was 0.643 µM.

As to `CCOC(C(=O)Nc1nnc(N[C@@H]2CCN(c3ccc(C)nn3)C2)s1)c1ccc(OC)cc1` (single isomer, unassigned) [Example 16], the IC50 in the assay on NCI-H1703 cells (setting [2]) was determined as 0.055 µM; at cellular GLS activity, 0.00274 µM; on GLS1, 0.0809 µM.

In the case of `CCOC(C(=O)Nc1nnc(N[C@@H]2CCN(c3ccc(F)nn3)C2)s1)c1ccc(F)cc1` (single isomer, unassigned) [Example 25], the IC50 is 0.686 µM with NCI-H1703 cells (setting [2]), 0.0632 µM at cellular GLS activity and 1.09 µM on GLS1.

With `COC(C(=O)Nc1nnc(N[C@@H]2CCN(c3ccc(F)nn3)C2)s1)c1ccc(F)cc1` (single isomer, unassigned) [Example 20], the IC50 was found to be 1.27 µM in the assay with NCI-H1703 cells (setting [2]), 0.0795 µM on cellular GLS activity and 0.323 µM on GLS1.

Turning to `COc1ccc(C(OC)C(=O)Nc2nnc(N[C@@H]3CCN(c4ccc(F)nn4)C3)s2)cc1` (single isomer, unassigned) [Example 22], the IC50 in the assay on NCI-H1703 cells (setting [2]) was determined as 0.0369 µM; at cellular GLS activity it was 0.00245 µM; on GLS1, 0.0189 µM.

Turning to `COc1cc(C(OC)C(=O)Nc2nnc(N[C@@H]3CCN(c4ccc(F)nn4)C3)s2)ccc1F` (single isomer, unassigned) [Example 24], the IC50 in the assay with NCI-H1703 cells (setting [2]) is 0.0116 µM; at cellular GLS activity, 0.00101 µM; at GLS1, 0.0713 µM.

In the case of `CCOC(C(=O)Nc1nnc(N[C@@H]2CCN(c3ccc(C)nn3)C2)s1)c1ccc(F)cc1` (single isomer, unassigned) [Example 27], the results for the IC50 in the assay with NCI-H1703 cells (setting [2]), on cellular GLS activity and at GLS1 were 1.22 µM, 0.0722 µM and 2.38 µM, respectively.

`CO[C@H](C(=O)Nc1nnc(N[C@@H]2CCN(c3cc(C)cnn3)C2)s1)c1ccccc1` [Example 13, (2S)-2-Methoxy-N-[5-[[(3R)-1-(5-methylpyridazin-3-yl)pyrrolidin-3-yl]amino]-1,3,4-thiadiazol-2-yl]-2-phenyl-acetamide]: the IC50 with NCI-H1703 cells (setting [1]) is 0.00848 µM; at cellular GLS activity it was 0.000658 µM; on GLS1, 0.0592 µM.

The record behind these values is US9938265B2, “1,3,4-thiadiazole compounds and their use in treating cancer” (AstraZeneca AB, priority 2015, dated 2018).
